2 compounds from patent US4824853A, “α,α-diaryl-4-aryl-4-hydroxy-1-piperidinebutanamide, N-oxides and method of treating diarrhea” (Janssen Pharmaceutica N.V., priority 1986, dated 1989) can be followed below.

Each structure is given as a SMILES string.

Data set [1] concerns diarrhea. Put plainly: Castor Oil Test in Rats. Type of data set: in vivo, Female Wistar rats. The following applies: Rattus norvegicus; intravenous, 1 h before 1 ml castor oil orally; diarrhea absent in 50% of animals 2 hours after castor oil. How it is done: Female Wistar rats were fasted overnight. Each animal was treated intravenously with the desired dose of the compound to be tested. One hour thereafter, the animal received 1 ml of castor oil orally. Each animal was kept in an individual cage and 2 hours after the castor oil treatment, the presence or absence of diarrhea was noted. The ED50 value was determined as that dose in mg/kg body weight, at which no diarrhea was present in 50% of the tested animals. Said ED50 -value for a compound of the present invention and for 4-(4-chlorophenyl)-4-hydroxy-N,N-dimethyl-α,α-diphenyl-1-piperidinebutanamide, which compound is generically designated as loperamide and which is described in U.S. Pat. No. 3,714,159, can be found in table I.

Data set [2] can be described thus: Determination of toxicity. Also noted: species or system Female Wistar rats. Conditions: rat, in vivo; dose lethal in 50% of tested animals; route not stated. How it is done:
Female Wistar rats were treated with the compound to be tested at various dose levels. LD50 values were determined as that dose in mg/kg body weight being lethal in 50% of the tested animals. Said LD50 values obtained for a compound of the present invention and for 4-(4-chlorophenyl)-4-hydroxy-N,N-dimethyl-α,α-diphenyl-1-piperidinebutanamide (i.e. loperamide) are also listed in table I. From these value it can be concluded that the compounds of the present invention show a decreased toxicity.

In data set [3] the test system is diarrhea. Description: Determination of the antidiarrheal specificity (Tail Withdrawal ED50 / Castor Oil ED50). Type of data set: in vivo, Female Wistar rats. The following applies: ratio ED50 Tail Withdrawal Test / ED50 Castor Oil Test. As to the method:
(§1) The safety margin for the antidiarrheal action was determined as the ratio of the LD50 value to the ED50 value obtained in the Castor Oil Test. The antidiarrheal specificity was determined as the ratio of the ED50 value obtained in the Tail Withdrawal Test to the ED50 value obtained in the Castor Oil Test.

Another data set relates to tail withdrawal response. Put plainly: Tail Withdrawal Test in Rats. Conditions: intravenous; for ED50: Rattus norvegicus, 55° C. water, response suppressed >10 seconds in 50% of animals, indicator of central effects. Type of data set: in vivo, Female Wistar rats. As to the method: Female Wistar rats were fasted overnight. Each animal was treated intravenously with the desired dose of the compound to be tested. The thus treated rats were put into individual restraining cages. After the administration of the test compound, the lower 5 cm portion of the tail was immersed into a cup filled with water at a constant temperature of 55° C. The typical tail withdrawal response was evaluated during a 10 seconds period after the immersion. ED50 values in mg/kg body weight were determined at that dose of the test compound capable of suppressing in 50% of the tested animals the typical tail withdrawal response during a time period exceeding 10 seconds.

Data set [4] can be described thus: Determination of the safety margin for the antidiarrheal action (LD50 / Castor Oil ED50). Also noted: species or system Female Wistar rats. Conditions: rat, in vivo; ratio LD50 / ED50 Castor Oil Test. How it is done: as §1

Regarding `CN(C)C(=O)C(CC[N+]1([O-])CCC(O)(c2ccc(Cl)cc2)CC1)(c1ccccc1)c1ccccc1` (stereo not drawn) [Compound 1, trans-4-(4-chlorophenyl)-4-hydroxy-N,N-dimethyl-α,α-diphenyl-1-piperidinebutanamide, N-oxide], the ED50 is 0.21 mg/kg with diarrhea [1] and over 20 mg/kg in the data set with tail withdrawal response. Further, the LD50 in data set [2] stood at 28.3 mg/kg. Also, in the data set on diarrhea [3], the Antidiarrheal specificity is given as over 95. Moreover, the “typical tail withdrawal reflex antagonism (in words)” value with tail withdrawal response is listed as “does not show such activity”. In addition, in data set [4], the selectivity ratio came to 135.

In the data set on diarrhea [1], `CN(C)C(=O)C(CCN1CCC(O)(c2ccc(Cl)cc2)CC1)(c1ccccc1)c1ccccc1` [loperamide, 4-(4-chlorophenyl)-4-hydroxy-N,N-dimethyl-α,α-diphenyl-1-piperidinebutanamide] showed an ED50 of 0.095 mg/kg. This compound showed an LD50 in data set [2] of 5.92 mg/kg. The Antidiarrheal specificity in the data set on diarrhea [3] was 29.8. In the data set with tail withdrawal response, the ED50 turned out to be 2.83 mg/kg and the “typical tail withdrawal reflex antagonism (in words)” value is given as “antagonizes the typical tail withdrawal reflex”. Further, in data set [4], the selectivity ratio is 62.3.
